From the NIST ThermoML archive (doi:10.1016/j.jct.2007.05.005)

Test: xn = mol fraction of the nth substance listed
Details: 101.3 kPa, Liquid; for speed of sound: Sing-around technique in a fixed-path interferometer

CCOC(C)(C)C [2-ethoxy-2-methylpropane] + CCc1ccccc1
Details | mass density, 288.15 K [kg/m3] | mass density, 298.15 K [kg/m3] | mass density, 323.15 K [kg/m3] | speed of sound, 288.15 K [m/s] | speed of sound, 298.15 K [m/s] | speed of sound, 323.15 K [m/s]
x1 = 0.062 | 862.801 | 854.066 | 831.864 | 1341.6 | 1298.5 | 1195.2
x1 = 0.122 | 855.221 | 846.39 | 823.917 | 1324.4 | 1281 | 1177.2
x1 = 0.239 | 840.448 | 831.434 | 808.496 | 1291.1 | 1247.3 | 1142.5
x1 = 0.353 | 826.071 | 816.917 | 793.606 | 1258.9 | 1214.8 | 1109
x1 = 0.455 | 813.347 | 804.045 | 780.291 | 1230.1 | 1185.7 | 1079
x1 = 0.556 | 800.809 | 791.351 | 767.168 | 1201.7 | 1157.1 | 1049.8
x1 = 0.653 | 788.72 | 779.094 | 754.45 | 1174.2 | 1129.3 | 1021.4
x1 = 0.746 | 777.039 | 767.306 | 742.327 | 1148.3 | 1103.2 | 994.59
x1 = 0.834 | 765.895 | 756.026 | 730.658 | 1123.2 | 1077.9 | 968.81
x1 = 0.918 | 755.524 | 745.492 | 719.646 | 1099.7 | 1054 | 944.36
x1 = 0.959 | 750.111 | 740.037 | 714.068 | 1088 | 1042.2 | 932.2
x1 = 1 | 744.955 | 734.806 | 708.642 | 1076.4 | 1031 | 920.73

CCOC(C)(C)C [2-ethoxy-2-methylpropane] + Cc1ccccc1
Details | mass density, 288.15 K [kg/m3] | mass density, 298.15 K [kg/m3] | mass density, 323.15 K [kg/m3] | speed of sound, 288.15 K [m/s] | speed of sound, 298.15 K [m/s] | speed of sound, 323.15 K [m/s]
x1 = 0.052 | 864.001 | 854.662 | 831.025 | 1332.1 | 1288.3 | 1181.6
x1 = 0.108 | 855.965 | 846.56 | 822.744 | 1315.2 | 1271.3 | 1164
x1 = 0.217 | 840.966 | 831.445 | 807.297 | 1282.6 | 1238.1 | 1130.6
x1 = 0.301 | 829.662 | 820.051 | 795.645 | 1258.9 | 1214.7 | 1106.5
x1 = 0.41 | 815.355 | 805.638 | 780.903 | 1228 | 1183.6 | 1075
x1 = 0.505 | 803.55 | 793.739 | 768.747 | 1202.7 | 1158.1 | 1049.3
x1 = 0.615 | 789.864 | 779.951 | 754.631 | 1173.5 | 1129.1 | 1019.7
x1 = 0.701 | 779.62 | 769.63 | 744.088 | 1151.5 | 1107 | 997.51
x1 = 0.805 | 767.503 | 757.422 | 731.601 | 1125.3 | 1080.5 | 970.75
x1 = 0.897 | 757.112 | 746.951 | 720.871 | 1102.8 | 1058.2 | 948.16
x1 = 0.95 | 751.062 | 740.859 | 714.65 | 1089.8 | 1045 | 934.78
x1 = 1 | 745.656 | 735.357 | 709.007 | 1078.9 | 1033.2 | 922.48

CCOC(C)(C)C [2-ethoxy-2-methylpropane] + c1ccccc1
Details | mass density, 288.15 K [kg/m3] | mass density, 298.15 K [kg/m3] | mass density, 323.15 K [kg/m3] | speed of sound, 288.15 K [m/s] | speed of sound, 298.15 K [m/s] | speed of sound, 323.15 K [m/s]
x1 = 0.049 | 874.335 | 863.764 | 837.01 | 1327.2 | 1280 | 1165.5
x1 = 0.102 | 864.201 | 853.699 | 827.068 | 1308.3 | 1261.4 | 1147.2
x1 = 0.204 | 846.222 | 835.811 | 809.343 | 1274.8 | 1228.3 | 1114.7
x1 = 0.299 | 830.929 | 820.575 | 794.184 | 1245.6 | 1199.4 | 1086.3
x1 = 0.393 | 816.969 | 806.647 | 780.301 | 1219.1 | 1173 | 1060
x1 = 0.494 | 802.925 | 792.628 | 766.309 | 1192.1 | 1146.5 | 1034.2
x1 = 0.589 | 790.686 | 780.408 | 754.084 | 1168.6 | 1123.6 | 1011.7
x1 = 0.696 | 777.916 | 767.647 | 741.314 | 1143.5 | 1099 | 988.29
x1 = 0.799 | 766.357 | 756.096 | 729.753 | 1120.3 | 1075.7 | 965.1
x1 = 0.906 | 755 | 744.747 | 718.393 | 1097.6 | 1053.3 | 942.92
x1 = 0.953 | 750.242 | 739.991 | 713.647 | 1087.8 | 1044 | 933.45
x1 = 1 | 745.656 | 735.357 | 709.007 | 1078.9 | 1033.2 | 922.48
